Results from PMC3191323 (Journal of medicinal chemistry, 2011).

Assays:
P. falciparum (3D7) = test: Viable cell count; type: cell-based, Plasmodium falciparum; settings: 2xIC50, 72 h
P. falciparum = test: Flow cytometric analysis of parasite DNA replication and nuclear division; type: cell-based, Plasmodium falciparum; settings: 2xIC50, flow cytometry
[1] = tested on: HepG2 human hepatocellular liver carcinoma cells; test: Cytotoxicity in mammalian cells, lactate dehydrogenase assay; type: cell-based; settings: HepG2 vs P. falciparum
P. falciparum strain W2 = test: Malaria SYBR Green I-based fluorescence assay; type: cell-based; settings: Plasmodium falciparum, W2, 96 h, read-out: Antimalarial activity against P. falciparum IC50, W2
P. falciparum strain 3D7 = test: Malaria SYBR Green I-based fluorescence assay; type: cell-based, Plasmodium falciparum

Cl.Cl.O=C(NCCCNCCCCCCCNCCCNC(=O)NCCC(c1ccccc1)c1ccccc1)NCCC(c1ccccc1)c1ccccc1 [Compound 9]
Cytotoxic response: decrease in viable cell numbers (% parasitemia) (P. falciparum (3D7)): significant cytotoxic response

Cl.Cl.S=C(NCCCNCCCCCCCNCCCNC(=S)NCCC(c1ccccc1)c1ccccc1)NCCC(c1ccccc1)c1ccccc1 [Compound 13]
Cytotoxic response: decrease in viable cell numbers (% parasitemia) (P. falciparum (3D7)): significant cytotoxic response

Cl.Cl.S=C(NCCCNCCCCNCCCNC(=S)NCc1ccccc1)NCc1ccccc1 [Compound 20]
Effect on DNA replication and nuclear division (P. falciparum): not able to prevent DNA replication | Cytotoxic response: decrease in viable cell numbers (% parasitemia) (P. falciparum (3D7)): not able to decrease viable cell numbers

Cl.Cl.O=C(NCCCNCCCCCCNCCCNC(=O)Nc1ccccc1)Nc1ccccc1 [Compound 30, 1,14-Bis-{3-[1-(phenyl)ureado]}-4,11-diazatetradecane Hydrochloride]
Cytotoxic response: decrease in viable cell numbers (% parasitemia) (P. falciparum (3D7)): significant cytotoxic response

Cl.Cl.O=C(NCCCNCCCCCCCNCCCNC(=O)NCC(c1ccccc1)c1ccccc1)NCC(c1ccccc1)c1ccccc1 [Compound 39, 1,15-Bis-{3-[1-(2′,2′-diphenylethyl)ureado]}-4,12-diazapentadecane Hydrochloride]
Effect on DNA replication and nuclear division (P. falciparum): greatest inhibitory affect on DNA replication and nuclear division | Cytotoxic response: decrease in viable cell numbers (% parasitemia) (P. falciparum (3D7)): significant cytotoxic response | Selectivity towards the parasite compared to HepG2 [1]: > 500 fold

Cl.Cl.S=C(NCCCNCCCCCCNCCCNC(=S)NC(c1ccccc1)c1ccccc1)NC(c1ccccc1)c1ccccc1 [Compound 25, 1,14-Bis-{3-[1-(1′,1′-diphenylmethyl)thioureado]}-4,11-diazatetradecane Hydrochloride]
Cytotoxic response: decrease in viable cell numbers (% parasitemia) (P. falciparum (3D7)): significant cytotoxic response

Cl.Cl.S=C(NCCCNCCCCNCCCNC(=S)NCC(c1ccccc1)c1ccccc1)NCC(c1ccccc1)c1ccccc1 [Compound 15]
Cytotoxic response: decrease in viable cell numbers (% parasitemia) (P. falciparum (3D7)): significant cytotoxic response

Cl.Cl.S=C(NCCCNCCCCCCNCCCNC(=S)NCc1ccccc1)NCc1ccccc1 [Compound 29, 1,14-Bis-{3-[1-(benzyl)thioureado]}-4,11-diazatetradecane Hydrochloride]
Cytotoxic response: decrease in viable cell numbers (% parasitemia) (P. falciparum (3D7)): significant cytotoxic response | Selectivity towards the parasite compared to HepG2 [1]: > 500 fold

CCN(CC)CCCC(C)Nc1ccnc2cc(Cl)ccc12 (centres unmarked) [CQ, chloroquine, reference compound]
IC50 (P. falciparum strain W2): 70 ± 1 nM | IC50 (P. falciparum strain 3D7; Plasmodium falciparum, 3D7, 96 h, read-out: Antimalarial activity against P. falciparum IC50, 3D7): 9 ± 0.04 nM

CCNC(=O)NCCCNCCCCCCNCCCNC(=O)NCC.Cl.Cl [Compound 34, 1,14-Bis-{3-[1-(ethyl)ureado]}-4,11-diazatetradecane Hydrochloride]
Antimalarial activity against P. falciparum IC50, 3D7 (values in μM) (P. falciparum strain 3D7; drug sensitive strain 3D7, footnote: IC50 values in μM): not active in the μM range

Cl.Cl.O=C(NCCCNCCCCCCCNCCCNC(=O)NC(c1ccccc1)c1ccccc1)NC(c1ccccc1)c1ccccc1 [Compound 38, 1,15-Bis-{3-[1-(1′,1′-diphenylmethyl)ureado]}-4,12-diazapentadecane Hydrochloride]
Effect on DNA replication and nuclear division (P. falciparum): greatest inhibitory affect on DNA replication and nuclear division | Cytotoxic response: decrease in viable cell numbers (% parasitemia) (P. falciparum (3D7)): significant cytotoxic response | Selectivity towards the parasite compared to HepG2 [1]: > 500 fold

Cl.Cl.S=C(NCCCNCCCCCCCNCCCNC(=S)NCC(c1ccccc1)c1ccccc1)NCC(c1ccccc1)c1ccccc1 [Compound 16]
Effect on DNA replication and nuclear division (P. falciparum): greatest inhibitory affect on DNA replication and nuclear division | Cytotoxic response: decrease in viable cell numbers (% parasitemia) (P. falciparum (3D7)): significant cytotoxic response
